These are literature values, as cited in US8088935B2, “Compounds and methods for the treatment of asthma” (Ironwood Pharmaceuticals, Inc., priority 2003, dated 2012).

For data set [1] the following is noted: toxicity studies.

With `O=C(O)c1cc(=O)c2c(OCC(O)COc3cccc4oc(C(=O)O)cc(=O)c34)cccc2o1` [Cromolyn, disodium cromoglycate], the biologic half-life (in vivo) is recorded as 46-99 minutes. For the same compound, the “Peak plasma levels occur (time)” value (inhaled) is at most 15 min. Further, the acute toxicity result in data set [1] is recorded as “impressively low order of acute toxicity”.
